Source: publication PMC11378297, “Discovery and Profiling of New Multimodal Phenylglycinamide Derivatives as Potent Antiseizure and Antinociceptive Drug Candidates” (ACS Chemical Neuroscience, 2024)
Like-named read-outs stand apart in the source and are kept apart here.

Assays:
[1] = system: maximal electroshock (MES) seizures, mice; assay: maximal electroshock (MES) seizure test; format: in vivo; conditions: Mus musculus, ip; 100 mg/kg i.p., 0.5 h, mice; read-out: MES: number of mice protected/number of mice tested (converted)
Description: (§1) Both the aforementioned parameters (ED50 and TD50) enabled the calculation of protective indexes (PIs), which reflect the comparative the benefit–risk ratio of these experimental therapeutic agents.
(§2) Four mice per group were randomly assigned to each experimental group in the initial screening experiments (each mouse was used just once). Four groups, each with eight animals, received injections of different doses of the investigated substances in order to determine the ED50 or TD50 values. The PIs for the compounds investigated and reference ASMs were calculated by dividing the TD50 value, as determined in the chimney test by the respective ED50 value, as determined in the MES, scPTZ, or 6 Hz (32 mA or 44 mA) tests (PI = TD50/ED50). The PIs are a measure of the potential therapeutic window of the tested agent.
(§3) All substances were suspended in Tween 80 (1% aqueous solution) and administered i.p. as a single injection at a volume of 10 mL/kg. On each day of experimentation, fresh solutions were prepared.

[2] = system: 6 Hz (32 mA) seizures, mice; assay: 6 Hz (32 mA) psychomotor seizure test; format: in vivo; conditions: Mus musculus, ip, 100 mg/kg i.p., 0.5 h;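 further: compounds given as one i.p. dose suspended in 1% aqueous Tween 80, with the 6 Hz (32 mA) model considered to reflect focal epilepsy in humans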
Description: as §1, §2, §3

TRPV1 (VR1) (h) = target: T1, TRPV1 (VR1) (h) (Homo sapiens, UniProt Q8NER1); assay: TRPV1 (VR1) (h) (antagonist effect); format: cell-based; conditions: 100 µM, human recombinant CHO cells; read-out: % Inhibition of control agonist response
T1 construct: host or cells: CHO cells
Protocol: Further in vitro functional studies confirmed TRPV1 antagonist activity for (R)-31–(R)-33.
Using previously described testing methodologies, binding/functional tests were conducted on a commercial basis at Eurofins Laboratories (Poitiers, France) and Eurofins Panlabs Discovery Services Taiwan, Ltd. (New Taipei City, Taiwan); see Table S9 for more information.
Table S9. Radioligand binding and functional assays. […]
TRPV1 (VR1) (h) (antagonist effect) […]
Assays were performed commercially in Eurofins Laboratories (Poitiers, France) or Eurofins Panlabs Discovery Services
Taiwan, Ltd. (New Taipei City, Taiwan).

[3] = four mice, read-out: protection in the 6 Hz (32 mA) test
[4] = mice, read-out: 6 Hz (32 mA): number of mice protected/number of mice tested (converted)

T1 sequence (Q8NER1 whole entry): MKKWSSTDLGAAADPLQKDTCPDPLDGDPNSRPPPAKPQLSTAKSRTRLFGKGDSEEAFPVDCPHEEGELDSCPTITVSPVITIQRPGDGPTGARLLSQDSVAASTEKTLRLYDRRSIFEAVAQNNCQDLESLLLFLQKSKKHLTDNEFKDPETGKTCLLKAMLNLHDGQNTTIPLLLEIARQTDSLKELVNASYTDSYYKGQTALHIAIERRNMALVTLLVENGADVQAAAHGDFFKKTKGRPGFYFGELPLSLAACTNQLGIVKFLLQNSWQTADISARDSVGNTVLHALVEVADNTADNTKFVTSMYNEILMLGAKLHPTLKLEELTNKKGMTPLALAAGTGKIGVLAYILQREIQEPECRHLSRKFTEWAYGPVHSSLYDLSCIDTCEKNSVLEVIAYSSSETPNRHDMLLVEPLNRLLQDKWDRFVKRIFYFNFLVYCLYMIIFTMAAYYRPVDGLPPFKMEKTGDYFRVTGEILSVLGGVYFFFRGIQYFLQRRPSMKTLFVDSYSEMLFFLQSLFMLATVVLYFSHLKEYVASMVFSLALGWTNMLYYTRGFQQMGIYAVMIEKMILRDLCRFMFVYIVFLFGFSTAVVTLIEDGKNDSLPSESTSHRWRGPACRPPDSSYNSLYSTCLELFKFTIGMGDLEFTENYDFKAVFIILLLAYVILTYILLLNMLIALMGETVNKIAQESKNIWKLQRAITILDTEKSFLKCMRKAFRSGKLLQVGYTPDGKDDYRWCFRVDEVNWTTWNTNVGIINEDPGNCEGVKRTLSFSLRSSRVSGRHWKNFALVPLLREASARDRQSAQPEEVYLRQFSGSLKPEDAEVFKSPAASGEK

Compound | responders at 100 mg/kg [1] | melting point | responders at 100 mg/kg [2, 3] | responders at 100 mg/kg [2, 4] | inhibition at 100 µM (TRPV1 (VR1) (h))
CC(=O)N[C@H](C(=O)N1CCN(c2cccc(C(F)(F)F)c2)CC1)c1ccccc1 [(S)-31, (S)-N-(2-Oxo-1-phenyl-2-(4-(3-(trifluoromethyl)phenyl)piperazin-1-yl)ethyl)acetamide] | 25% | 109.8 to 110.6 °C | 50% | 50% | 
CC(=O)N[C@H](C(=O)N1CCN(c2cccc(OC(F)(F)F)c2)CC1)c1ccccc1 [(S)-32, (S)-N-(2-Oxo-1-phenyl-2-(4-(3-(trifluoromethoxy)phenyl)piperazin-1-yl)ethyl)acetamide] | 25% |  | 75% | 75% | 
CC(=O)N[C@H](C(=O)N1CCN(c2cccc(SC(F)(F)F)c2)CC1)c1ccccc1 [(S)-33, (S)-N-(2-Oxo-1-phenyl-2-(4-(3-((trifluoromethyl)thio)phenyl)piperazin-1-yl)ethyl)acetamide] | 25% |  | 75% | 75% | 
O=C(NC(C(=O)N1CCN(c2cccc(C(F)(F)F)c2)CC1)c1ccccc1)c1ccccc1 (stereo not shown) [Compound 3, N-(2-Oxo-1-phenyl-2-(4-(3-(trifluoromethyl)phenyl)piperazin-1-yl)ethyl)benzamide] | 0% | 140.9 to 141.2 °C | 50% | 50% | 11.4%
O=C(NC(C(=O)N1CCN(c2cccc(C(F)(F)F)c2)CC1)c1ccccc1)c1ccccc1Cl (stereo not shown) [Compound 4, 2-Chloro-N-(2-oxo-1-phenyl-2-(4-(3-(trifluoromethyl)phenyl)piperazin-1-yl)ethyl) Benzamide] | 0% | 134.8 to 135.9 °C |  | 0% | 14.4%
O=C(NC(C(=O)N1CCN(c2cccc(C(F)(F)F)c2)CC1)c1ccccc1)c1cccc(Cl)c1 (stereo not shown) [Compound 5, 3-Chloro-N-(2-oxo-1-phenyl-2-(4-(3-(trifluoromethyl)phenyl)piperazin-1-yl)ethyl) Benzamide] | 0% | 151.7 to 152.4 °C | 50% | 50% | 3.8%
O=C(NC(C(=O)N1CCN(c2cccc(C(F)(F)F)c2)CC1)c1ccccc1)c1ccc(Cl)cc1 (stereo not shown) [Compound 6, 4-Chloro-N-(2-oxo-1-phenyl-2-(4-(3-(trifluoromethyl)phenyl)piperazin-1-yl)ethyl) Benzamide] | 0% | 165.2 to 166.7 °C | 25% | 25% | 6.8%
O=C(NC(C(=O)N1CCN(c2cccc(C(F)(F)F)c2)CC1)c1ccccc1)c1ccccc1C(F)(F)F (stereo not shown) [Compound 7, N-(2-Oxo-1-phenyl-2-(4-(3-(trifluoromethyl)phenyl)piperazin-1-yl)ethyl)-2 (trifluoromethyl)benzamide] | 0% | 165.2 to 166.7 °C |  | 0% | -2.6%
O=C(NC(C(=O)N1CCN(c2cccc(C(F)(F)F)c2)CC1)c1ccccc1)c1cccc(C(F)(F)F)c1 (stereo not shown) [Compound 8, N-(2-Oxo-1-phenyl-2-(4-(3-(trifluoromethyl)phenyl)piperazin-1-yl)ethyl)-3-(trifluoromethyl)benzamide] | 0% | 143.2 to 144.1 °C |  | 0% | -6.1%
O=C(NC(C(=O)N1CCN(c2cccc(C(F)(F)F)c2)CC1)c1ccccc1)c1ncccc1C(F)(F)F (stereo not shown) [Compound 10, N-(2-Oxo-1-phenyl-2-(4-(3-(trifluoromethyl)phenyl)piperazin-1-yl)ethyl)-3-(trifluoromethyl)picolinamide] | 0% |  |  | 50% | -3.5%
